We go through 5 compounds from ChEMBL document CHEMBL1148288, “A new aliphatic amino prodrug system for the delivery of small molecules and proteins utilizing novel PEG derivatives” (J Med Chem, 2004).

pIC50: −log10 of the molar value. Where a name gives a salt, the structure may show the parent alone.

The assay relates to P388. The assay can be described thus: In vitro inhibitory activity against cancerous P388 cell line. In kind it is functional, cell-based. The following applies: Mus musculus.

The pIC50 is the IC50 on a negative log10 scale, so that one unit is a factor of ten. High values mean a low IC50, low ones a high IC50. For `COCCOCCOC(=O)NCC(=O)OCCN(CCOC(=O)CNC(=O)OCCOCCOC)CC(=O)NC(=O)[C@@]1(O)Cc2c(O)c3c(c(O)c2[C@H](OC2CC(N)C(O)C(C)O2)C1)C(=O)c1c(OC)cccc1C3=O` (stereo not given in full), the pIC50 is 6.37.

`COCCOCCOC(=O)NCCOCCOCC(=O)OCCN(CCOC(=O)COCCOCCNC(=O)OCCOCCOC)CC(=O)NC(=O)[C@@]1(O)Cc2c(O)c3c(c(O)c2[C@H](OC2CC(N)C(O)C(C)O2)C1)C(=O)c1c(OC)cccc1C3=O` (stereo not given in full) gave a negative logarithm of the IC50 (pIC50) of 5.96.

On to `COc1cccc2c1C(=O)c1c(O)c3c(c(O)c1C2=O)C[C@@](O)(C(=O)CO)C[C@@H]3O[C@H]1C[C@H](N)[C@H](O)[C@H](C)O1` [DOXORUBICIN HYDROCHLORIDE], for which the pIC50 was 7.77.

The compound `COCCOCCOC(=O)NCCOCCOCCNC(=O)COCC(=O)OCCN(CCOC(=O)COCC(=O)NCCOCCOCCNC(=O)OCCOCCOC)CC(=O)NC(=O)[C@@]1(O)Cc2c(O)c3c(c(O)c2[C@H](OC2CC(N)C(O)C(C)O2)C1)C(=O)c1c(OC)cccc1C3=O` (stereo not given in full) showed a negative logarithm of the IC50 (pIC50) of 6.34.

Compound `COCCOCCOC(=O)NC(C)C(=O)OCCN(CCOC(=O)C(C)NC(=O)OCCOCCOC)CC(=O)NC(=O)[C@@]1(O)Cc2c(O)c3c(c(O)c2[C@H](OC2CC(N)C(O)C(C)O2)C1)C(=O)c1c(OC)cccc1C3=O` (stereo not given in full) gave a pIC50 of 6.50.
